Measurements as given in US20240000863A1, “Skin Probiotics” (The Regents of the University of California, priority 2021, published 2024).

T1: KLK5 (Homo sapiens, UniProt Q9Y337)
T1 sequence (Q9Y337 23-293): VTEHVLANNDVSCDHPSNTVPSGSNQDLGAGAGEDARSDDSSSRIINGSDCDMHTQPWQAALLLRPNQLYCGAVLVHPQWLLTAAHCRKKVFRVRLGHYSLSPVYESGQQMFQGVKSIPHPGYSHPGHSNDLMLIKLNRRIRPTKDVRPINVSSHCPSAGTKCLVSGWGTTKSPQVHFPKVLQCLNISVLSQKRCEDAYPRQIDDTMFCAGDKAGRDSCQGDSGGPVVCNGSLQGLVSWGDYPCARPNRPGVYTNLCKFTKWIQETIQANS

T2: KLK5 protein (kallikrein 5) (UniProt Q9Y337 67-293, limits assumed)
T2 sequence (looked up): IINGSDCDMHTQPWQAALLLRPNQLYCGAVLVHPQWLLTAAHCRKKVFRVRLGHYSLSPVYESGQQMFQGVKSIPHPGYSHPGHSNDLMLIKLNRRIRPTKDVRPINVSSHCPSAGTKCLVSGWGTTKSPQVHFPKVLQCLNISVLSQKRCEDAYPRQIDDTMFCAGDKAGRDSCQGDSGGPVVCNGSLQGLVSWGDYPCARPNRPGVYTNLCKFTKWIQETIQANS

B1: LEKTI-D6 protein (lymphoepithelial Kazal-Type-related protease inhibitor, domain 6), secreted by C. glutamicum and purified (other)
chain: MESGKATSYAELCNEYRKLVRNGKLACTRENDPIQGPDGKVHGNTCSMCEVFFQAEEEEKKKKEGESRNKR

What was measured:
KLK5 = target: T1, KLK5; test: KLK5 inhibition assay (Acetyl-YASR-paranitroanilide, absorbance 405 nm); format: biochemical; conditions: over 30 minutes; leupeptin at 100 uM
Protocol: The KLK5 inhibition assay is the foremost method to determine inhibition of KLK5. In the assay, KLK5 is incubated with the substrate Acetyl-YASR-paranitroanilide Uninhibited, KLK5 cleaves the substrate Acetyl-YASR at the arginine position […], releasing para-nitroanilide, a chromophore with absorbance 405 nm, resulting in increased absorption at that wavelength. When inhibited, the substrate Acetyl-YASR-paranitroanilide remains intact, and there is no increase in absorption at 405 nm. As a positive control, we used the absence of any inhibitor and the addition of purified Red Fluorescent Protein (RFP). As negative controls, we used a substrate only addition (no KLK5 is added) as well as a 100 uM addition of purified leupeptin, which is known to inhibit KLK5 at high concentrations.

[1] = target: T2, KLK5 protein (kallikrein 5); test: cell-based or functional assay

| Molecule | change of absorbance at 405 nm (KLK5) | KLK5 inhibition assay (cleavage of Acetyl-YASR-paranitroanilide, absorbance at 405 nm), IC50 [1] [nM] |
| --- | --- | --- |
| CC(=O)N[C@@H](CC(C)C)C(=O)N[C@@H](CC(C)C)C(=O)N[C@H](C=O)CCCNC(=N)N [leupeptin] | very little increasing absorbance | – |
| B1 | – | 89 |
